This note sets out measurements from US20240374546A1, “USES AND METHODS FOR PROMOTING INCREASED MITOCHONDRIAL MASS AND FUNCTION” (Brightseed, Inc., priority 2022, published 2024).

One data set deals with SDHA mRNA. Kind of data set: qPCR mouse liver, SDHA mRNA. Type of data set: in vivo. To be noted: HFD+NCT vs HFD. How it is done: (§1) Total RNA was isolated from liver tissues and primary human hepatocytes using Trizol (Invitrogen). cDNA was amplified using 3 μg of total RNA using qScript cDNA SuperMix (Quanta BioSciences, Beverly, MA, USA). Quantitative real time PCR (RT-PCR) analysis was performed using SYBR® Select Master Mix (Applied Biosystems) and an ABI 7900HT thermal cycler (Applied Biosystems, Thermo Fisher Scientific). Ct values were normalized to 18s rRNA and are expressed as fold change over samples from mice fed NC or cultured human hepatocytes without NCT.
A general note: Real-time PCR tracks product formation cycle by cycle.

The next data set has as its target T1, HNF4α (Mus musculus, UniProt P49698).
T1 construct: from tissue; host or cells: liver of C57BL/6J mice
Briefly: Immunofluorescence of hepatic HNF4α in HFD mice. Format: in vivo. Conditions: oral NCT in HFD chow, 10 weeks. How it is done: Frozen liver sections were permeabilized using 0.3% Triton-X and incubated in antigen retrieval solution (Antigen retrieval citrate, Biogenex) at sub-boiling temperature for 10 min. Subsequently, sections were incubated with blocking buffer containing 5% normal donkey serum (Jackson Immuno Research) followed by incubation overnight at 4° C. with mouse anti-HNF4α monoclonal antibody (1:800, Cat #PP-H1415-00, R&D Systems), rabbit polyclonal anti-VDAC antibody (1:400, cat #PA1-954A, Invitrogen) and cleaved caspase3 antibody (1:500, cat #9664, Cell Signaling). Sections were washed and incubated for 1 hour at room temperature with anti-mouse secondary antibody coupled with Alexa fluor 488 (1:400, Invitrogen) and antirabbit secondary antibody coupled with rhodamine red. Nuclei were visualized by counterstaining with DAPI (40,6-diamidino-2-phenylindole, Sigma Aldrich). Slides were mounted using fluorescence mounting medium and images were obtained at 40× magnification using an Olympus IX71 fluorescence microscope. Fluorescence intensity of HNF4α-stained nuclei and VDAC stained mitochondria was calculated using MetaMorph TL software (version 7.6.5.0, Olympus). Fold change was calculated by normalizing to values from mice fed NC.

Another data set has as its system PPARGC1A (PGC1α). Kind of data set: Western blot, mouse liver, PPARGC1A. Type of data set: in vivo. Conditions: ten weeks of oral NCT. As to the method:
(§2) Mouse liver extracts were prepared by incubation in RIPA buffer (Invitrogen) containing protease inhibitors (Calbiochem, San Diego, CA). Protein was quantified by BCA assay (Thermo Scientific). Protein ([…] for cytochrome C) was separated on 12% or 16% Tri-Glycine gels (Invitrogen) and transferred to Immobilon P membrane (0.2 μm pore size, Millipore). After 1 hour in phosphate-buffered saline-Tween (PBST) with 3% milk, membranes were incubated with antibodies to PPARGC1A(PGC1α) (Cat #NBP1-04676, Novus, 1:1000), SDHA XP (Cat #11998, Cell Signaling 1:1000), or Cytochrome C (Cat #4280, Cell Signaling 1:500), followed by secondary antibody conjugated to horseradish peroxidase (1:5000, Jackson Immune or Cell Signaling). […] After detection, membrane was incubated with Ponceau S solution (Sigma) for 1 hr for normalization to loaded protein.

For a further data set, the system named is TNFα mRNA. Briefly: qPCR primary human hepatocytes, TNFα mRNA. Type of data set: cell-based. Conditions: NCT 5, 15, 40 μM. How it is done:
(§3) Experiments with primary human hepatocytes were performed by CN-Bio (Cambridge, UK). Briefly, primary human hepatocytes (PHHs), human Kupffer cells (HKs) and human stellate cells (HSCs) were seeded onto CN-Bio's PhysioMimix LC12 MPS culture plates at 6×10^5 cells for PHHs and 6×10^4 cells for HKs and HSCs in 1.6 ml of CN-Bio's HEP-lean media with 5% FCS. Throughout the experiment the cells were maintained at a flow rate of 1 μl/s. After 24 hours (Day 1) of seeding, the media was changed to HEP-lean media and the cells were incubated until day 4 to allow the cells to form microtissues. At day 4 post seeding, media was changed to HEP-fat media and treated with DMSO or NCT (5, 15, 40 μM). Media was replaced on days 6 and 8. Cells were harvested on day 10 for RNA extraction and culture media was collected for ELISA analysis.
as §1

In a further data set the test system is cytochrome C. Briefly: Western blot, mouse liver, cytochrome C. Format: in vivo. Conditions: HFD+NCT vs HFD. As to the method: as §2
A short description of another data set: Microsomal stability. To be noted: human microsomes compared with rodent. Type of data set: in vitro ADME.
For another data set, the system named is IL-6 mRNA. Kind of data set: qPCR primary human hepatocytes, IL-6 mRNA. Format: cell-based. To be noted: NCT 5, 15, 40 μM. As to the method: as §3, §1
A further data set deals with PPARGC1A mRNA. Briefly: qPCR primary human hepatocytes, PPARGC1A mRNA. To be noted: NCT 5, 15, 40 μM. Type of data set: cell-based. How it is done: as §3, §1
In data set [1] the test system is mitochondrial DNA (ND1, 16S rRNA). Kind of data set: Mitochondrial DNA analysis in mouse liver. Format: in vivo. To be noted: normalized with HK2. As to the method: Quantification of mtDNA was performed as described (BCurr Protoc Mouse Biol 2017; 7:47-54). Snap frozen mouse liver was homogenized and total cellular DNA was extracted with a QIAamp DNA kit (Qiagen) followed b PCR with the primers below: […]

For the next data set, the system named is HSP60 mRNA. Briefly: qPCR mouse liver, HSP60 mRNA. Format: in vivo. Conditions: HFD+NCT vs HFD. As to the method: as §1
The subject of another data set is T6PNE cells. Kind of data set: Nitric oxide assay, T6PNE cells treated with palmitate. Type of data set: cell-based. Conditions: palmitate plus 15 μM NCT, 3 days, normalized to protein. As to the method: T6PNE cells were maintained in RPMI (5.5 mM glucose, Corning) supplemented with 10% fetal bovine serum (FBS, Sigma-Aldrich) and 1% penicillin-streptomycin (pen-strep, Gibco) in 5% CO2 at 37° C. Cells were treated with […] palmitate plus 0 or 15 μM NCT for 3 days in 10 cm plates and harvested with 500 μl PBS. For tissue specimens, snap frozen mouse liver was weighed and homogenized with PBS. NO was measured with the QuantiChrom Nitric Oxide Assay kit (D2NO-100, BioAssay Systems). Homogenized samples (150 μl) were processed for deproteination with 8 μl ZnSO4 and 8 μl NaOH. For normalization, an aliquot of samples from T6PNE cells was taken for BCA assay before deproteination. Samples and standard from kit incubated with reagents for 20 min at 60° C. and measured OD 540 nm.
Palmitate (150 mM) (Sigma-Aldrich) was prepared in 50% ethanol and precomplexed with 15% fatty acid-free BSA (Research Organics, Cleveland, OH, USA) in a 37° C. water shaker. […] precomplexed palmitate was used as a 12 mM stock solution for all assays with a final concentration of 0.12 mM palmitate in cell culture medium.

T1 sequence (P49698 whole entry): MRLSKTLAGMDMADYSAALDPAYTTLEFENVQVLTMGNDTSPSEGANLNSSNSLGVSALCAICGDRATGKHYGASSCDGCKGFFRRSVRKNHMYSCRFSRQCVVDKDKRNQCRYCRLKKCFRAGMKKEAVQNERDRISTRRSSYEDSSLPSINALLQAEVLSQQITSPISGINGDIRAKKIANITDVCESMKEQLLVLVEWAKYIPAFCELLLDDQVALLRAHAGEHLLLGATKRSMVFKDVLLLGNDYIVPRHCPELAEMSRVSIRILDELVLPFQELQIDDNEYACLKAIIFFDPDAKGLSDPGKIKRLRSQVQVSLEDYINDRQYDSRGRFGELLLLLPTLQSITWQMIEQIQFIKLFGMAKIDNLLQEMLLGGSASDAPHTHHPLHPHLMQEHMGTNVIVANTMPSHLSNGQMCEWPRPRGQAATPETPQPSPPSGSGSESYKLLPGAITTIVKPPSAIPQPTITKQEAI

Turning to `O=C(/C=C/c1ccc(O)c(O)c1)NCCc1ccc(O)cc1` [NCT, N-transcaffeoyltyramine], the “SDHA mRNA in mouse liver” value with SDHA mRNA is reported as “increased”. Besides, the “hepatic HNF4α expression (HFD-induced decrease)” value at HNF4α was “reversed”. The “PPARGC1A protein in mouse liver” value in the data set with PPARGC1A (PGC1α) is listed as “increased”. For the same compound, in the data set with TNFα mRNA, the “TNFα mRNA in cultured human hepatocytes” value is recorded as “decreased in a dose-responsive manner”. For the same compound, in the data set on cytochrome C, the “hepatic cytochrome C protein level (HFD-induced decrease)” value is recorded as “reversed”. The “microsomal stability, human versus rodent microsomes” value in “Microsomal stability” is “much more stable”. The “IL-6 mRNA in cultured human hepatocytes” value in the data set with IL-6 mRNA is recorded as “reduced”. Further, the “PPARGC1A mRNA in primary human hepatocytes” value in the data set with PPARGC1A mRNA was “increased”. Further, in data set [1], the “mitochondrial DNA, 16S rRNA” value is “significant increase” and the “mitochondrial DNA, ND1” value is given as “significant increase”. Further, the “HSP60 mRNA in mouse liver” value in the data set on HSP60 mRNA is “greatly decreased”. The “nitric oxide (NO) in cultured cells treated with palmitate” value with T6PNE cells is listed as “decreased”.
